Results on 2 substances are retold here after US7033829B2, “Method to inhibit cell growth using oligonucleotides” (Trustees of Boston University, priority 2000, dated 2006).

Series [1] relates to mitochondrial enzymes ATPase, cytochrome c oxidase and NADH dehydrogenase genes. As to the kind of experiment: DNA microarray / RT-PCR / northern of mitochondrial genes in SCC12F. The class given is cell-based, human. The source says: Exposure of keratinocytes to UVB irradiation affects the expression of genes involved in cell cycle arrest, DNA repair and cytokine production. Single-stranded oligonucleotides sharing sequence homology with the telomere 3′ overhang, when introduced into cells, mimic these UV effects. To identify other genes that may be similarly modulated, cells of keratinocyte origin (SCC12F; a human epidermal squamous cell carcinoma line provided by Dr. James Rheinwald of Harvard University) were exposed to solar simulated irradiation (SSR) (20 mJ/cm^2, measured at 285±5 nm), to an 11-base oligonucleotide (pGTTAGGGTTAG; SEQ ID NO:5) homologous to the telomere overhang (T-oligo), or to a complementary sequence as control [pCTAACCCTAAC; (SEQ ID NO:9) control oligonucleotide]. […] These are mitochondrial-transcribed genes whose encoded proteins participate in cellular respiration.

For series [2], the system named is human melanoma line MM-AN. As to the kind of experiment: FACS analysis of MM-AN melanoma cells. The note with it: 40 μM. Format: cell-based. The protocol:
Proteins were analyzed by denaturing polyacrylamide gel electrophoresis (SDS-PAGE), using 10% polyacrylamide, and western blot analysis was done with an E2F1-specific monoclonal antibody (KH95 Santa Cruz Biotechnology, Santa Cruz, Calif.), and p73 analyzed using a polyclonal antibody (AB-4 from Oncogene Research Products, San Diego, Calif.). […] In order to determine the contribution of p73 to cell death, MM-AN melanoma cells were stably transfected with a dominant negative p73 (p73DN) (Irwin et al., Nature 402:645–648) construct or empty vector as a control (p73^DN-containing vector a gift from Dr. William Kaelin, Dana Farber Institute, Boston) and paired cultures were supplemented with 40 μM 11mer-1 or diluent alone, then harvested at 72 hours for FACS analysis. […] The above-mentioned differentiation markers are expressed in normal human melanocytes. It appears that the loss of expression of these antigens is a mechanism that a subset of human melanomas uses to escape immunosurveillance defenses. Several peptides from these antigens are targets of tumor infiltrating cytotoxic lymphocytes. Encouraging results have been obtained in vivo with different vaccination strategies using antigenic peptides from the above antigens.
In general terms: In flow cytometry, cells or beads pass a laser one at a time.

Series [3] concerns serine 15-phosphorylated p53, total p53, E2F1. As to the kind of experiment: Western blot of p53 serine 15 phosphorylation and E2F1 in normal control fibroblasts. The note with it: 40 μM. The class given is cell-based, human. The protocol: Because the serine 15 site on p53 is known to be phosphorylated in an ATM-dependent manner after exposure to ionizing radiation (IR), we wished to examine the role of ATM in E2F1 induction and p53 serine 15 phosphorylation in response to the 11 mer-1. Fibroblasts from a patient with ataxia telangiectasia (AT) known to lack functional ATM protein, and age-matched normal control fibroblasts (N) were treated with either diluent, 40 μM 11mer-1, sham irradiation or IR (10 Gy). Cells were collected 3 hours (sham or IR) or 48 hours (diluent, 11mer-1) for western blot analysis to detect serine 15-phosphorylated p53 and total p53. In normal fibroblasts, the 11mer-1 induced a 10–15 fold increase in the level p53 phosphorylation on serine 15 compared to diluent-treated controls.
A general note: A western blot detects proteins with antibodies after separation by electrophoresis.

Series [4] deals with squamous carcinoma line SCC12F. As to the kind of experiment: Cell yields of UVA-irradiated SCC12F cells after pretreatment. The class given is cell-based, human. The note with it: 100 μM 3 days pretreatment; 10 J/cm^2 UVA. The protocol:
Cells from the well differentiated squamous carcinoma line SCC12F (gift of Dr. James Rheinwald, Harvard University) were treated with 100 μM pTpT or diluent as control for 3 days. Then cells were re-plated in medium lacking pTpT and were sham- or UV-irradiated with 10 J/cm^2 UVA (Sellas Sunlight UVA lamp). Cell yields were determined at different intervals after UV irradiation.

Another series has as its system T cell proliferation. As to the kind of experiment: Allogenic mixed lymphocyte reaction with keratinocyte culture medium. The class given is cell-based, human. The note with it: >10 kD components of culture medium from 72 hour sample. The protocol:
The immunomodulatory effect of pTpT was tested in vitro using human keratinocytes. Duplicate cultures of primary human keratinocytes were treated with pTpT, diluent or UVB irradiation (200 J/m^2) or sham irradiation. Cells were collected at various times after treatment and analyzed for IL-10 protein by ELISA and for IL-10 mRNA by RT-PCR. An increase in IL-10 mRNA was detected after 6 hours in irradiated cells and after 48 hours in pTpT treated cells. An increase in IL-10 protein of 18 pg/ml was detected 24 hours after irradiation and 15±2 pg/ml 72 hours after treatment with pTpT. […] In the allogenic MLR, T cell activation is measured as lymphocyte proliferation, measured by ^3H-thymidine incorporation. IL-10 activity of culture medium from the 72 hour pTpT sample was measured by addition of the >10 kD components (containing the 18 kD IL-10 protein). […] Thus, like UVB irradiation, pTpT induces IL-10 in human keratinocytes which is likely to cooperate with TNFα to inhibit contact hypersensitivity in pTpT treated skin.

Series [5] concerns Cu/Zn superoxide dismutase. As to the kind of experiment: Cu/Zn superoxide dismutase mRNA in fibroblasts. The class given is cell-based. As to conditions: 48 and 72 hours after treatment.
Series [6] deals with Human melanoma cell lines CRL 1424, Malma, Sk Mel 2, and Sk Mel 28. As to the kind of experiment: Cell yield of human melanoma cell lines. The class given is cell-based. As to conditions: 100 μM; one week; any of four cell lines. The protocol:
Human melanoma cell lines CRL 1424, Malma, Sk Mel 2, and Sk Mel 28 were obtained from the American Type Culture Collection (ATCC). The cell lines were maintained in DME+2% calf serum, and dosed with either water (diluent) with DME, or 100 μM T2 in DME. One week after dosage, cells were collected and counted by Coulter™ counter.

Series [7] concerns Normal human neonatal keratinocyte cells. As to the kind of experiment: Cell yield of normal keratinocytes. The class given is cell-based. As to conditions: 100 μM. The protocol:
Normal human neonatal keratinocyte cells were cultured as described above in Example 1 for SCC12F cells, and treated with either 100 μM T2 or diluent as a control. Cells were harvested for cell counts. The cell yield in cultures treated with T2 was reduced by 63% compared to that of paired control cultures after three days (FIG. 5).

Oligonucleotides are written 5' to 3', each unit as a sugar letter and its base; * is a phosphorothioate linkage, no mark a phosphodiester; rarer units and linkages stand in square brackets, end groups in braces. Plain capitals give the bases only. d = 2'-deoxy (DNA); {P} = phosphate

As to “pGTTAGGGTTAG (DNA {P}-dGdTdTdAdGdGdGdTdTdAdG) [SEQ ID NO: 5]”, the “downregulation of 8 genes (microarray)” value in series [1] was above 50%. The “genes downregulated as early as” value in series [1] (RT-PCR and northern blot) came to 48 h. For the same substance, the cell cycle result in series [2] was “first entered an S-phase arrest”. Also, the “apoptosis rate of cells expressing p73^DN” value in series [2] (72 hours) was “at half the rate of control cells”. Further, the “apoptosis (sub-G0/G1 DNA content)” value in series [2] (by 72 hours) is “a substantial portion of the cells were undergoing apoptosis”. Moreover, the E2F1 levels result in series [3] is given as “induced E2F1 levels”. Moreover, the “increase in p53 phosphorylation on serine 15 compared to diluent” value in series [3] (48 hours) is 10–15 fold. In series [3] (young adult donor, 48 hours), the “level of total p53” value is recorded as “minimally induced”.
As for thymidine dinucleotide [pTpT], the “yields of UVA irradiated cells” value in series [4] was “increased the yields of UVA irradiated cells”. For the same substance, the “reduction in T cell proliferation” value in the series on T cell proliferation worked out at 80±5%. Moreover, the “increase of Cu/Zn superoxide dismutase mRNA levels” value in series [5] is listed as “greater than 3 fold”. Besides, the cell yields result in series [6] is recorded as “marked decreases in cell yields”. Also, the “cell yield reduced compared to paired control cultures” value in series [7] (after three days) was found to be 63%. Besides, the number of cells result in series [7] (three days (control: one population doubling)) is listed as “remained the same”.
